We go through 9 compounds from US8501770B2 (ArQule, Inc., priority 2009, dated 2013).

The target in assay [1] is T1, Full-length inactive AKT1 (Homo sapiens, UniProt P31749). The experiment in a line: Inactive Akt HTRF Assay (Akt1).
Description: AKT1 activity was assayed using CisBio KinEASE™ HTRF Assay technology. This technology utilizes a proprietary biotinylated peptide substrate (STKS3), streptavidin labeled XL665 antibody, and STK antibody-Eu^3+-cryptate. AKT1 activation was achieved by the addition of the activating kinases PDK1 and MAPKAPK2, lipid vesicles, and ATP. The extent of STKS3 biotinylated peptide phosphorylation was determined using a phospho-STK antibody-Eu^3+-cryptate and streptavidin labeled XL665 antibody. XL665 was stimulated by Eu^3+-cryptate resulting in a TR-FRET signal proportional to the SKS3 phosphorylation level.
Assay [2] concerns the target T1, Full-length inactive AKT1. Nature of the assay: Inactive Akt Alpha Screen Assay. It is filed as biochemical. The note with it: values not marked with "*"; read-out: Akt1 IC50, (AlphaScreen). A digest of the protocol:
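AlphaScreen read-out (excitation 640 nm, emission 570 nm) after 90 min incubation at room temperature in the dark. Signal comes from crosstide phosphorylation by AKT1, which was activated by added PDK1, MAPKAPK2, ATP and lipid vesicles, captured via phospho-AKT substrate antibody and streptavidin beads.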
(Bead proximity is the source of the signal in Alpha formats.)

A further assay relates to A2780. Nature of the assay: MTS Assay, cell proliferation, A2780. It is filed as cell-based. The following applies: Homo sapiens, read-out: Average of [CELL], IC50, MTS (72 hours; 10 Percent; FBS) A2780. As for the experimental part: (§1) Cell proliferation analysis. Cell survival was determined by the MTS assay. Briefly, cells were plated in a 96-well plate at 2,000-10,000 cells per well, cultured for 24 hours in complete growth medium, and then treated with various drugs and drug combinations for 72 hours. MTS was added and incubated for 4 hour, followed by assessment of cell viability using the microplate reader at 570 nm. Data were normalized to untreated controls and analyzed with Microsoft Excel.

In another assay the test system is AN3CA. Nature of the assay: MTS Assay, cell proliferation, AN3CA. The class given is cell-based. The note with it: Homo sapiens, AN3-CA, read-out: Average of [CELL], IC50, MTS (72 hours; 10 Percent; FBS) AN3CA. The protocol: as §1
The next assay has as its system BT474. The experiment in a line: MTS Assay, cell proliferation, BT474. The following applies: Homo sapiens, BT-474, read-out: Average of [CELL], IC50, MTS (72 hours; 10 Percent; FBS) BT474. It is filed as cell-based. As for the experimental part:
as §1

A further assay relates to LnCap. The experiment in a line: MTS Assay, cell proliferation, LnCap. The following applies: Homo sapiens, read-out: Average of [CELL], IC50, MTS (72 hours; 10 Percent; FBS) LnCap. The class given is cell-based. The protocol: as §1
For another assay, the system named is Zr75-1. The experiment in a line: MTS Assay, cell proliferation, Zr75-1. It is filed as cell-based. The note with it: Homo sapiens, ZR-75-1, read-out: Average of [CELL], IC50, MTS (72 hours; 10 Percent; FBS) Zr75-1. The protocol:
as §1

A further assay concerns IGROV. The experiment in a line: MTS Assay, cell proliferation, IGROV. It is filed as cell-based. The note with it: read-out: Average of [CELL], IC50, MTS (72 hours; 10 Percent; FBS) IGROV. As for the experimental part:
as §1

T1 sequence (P31749 whole entry): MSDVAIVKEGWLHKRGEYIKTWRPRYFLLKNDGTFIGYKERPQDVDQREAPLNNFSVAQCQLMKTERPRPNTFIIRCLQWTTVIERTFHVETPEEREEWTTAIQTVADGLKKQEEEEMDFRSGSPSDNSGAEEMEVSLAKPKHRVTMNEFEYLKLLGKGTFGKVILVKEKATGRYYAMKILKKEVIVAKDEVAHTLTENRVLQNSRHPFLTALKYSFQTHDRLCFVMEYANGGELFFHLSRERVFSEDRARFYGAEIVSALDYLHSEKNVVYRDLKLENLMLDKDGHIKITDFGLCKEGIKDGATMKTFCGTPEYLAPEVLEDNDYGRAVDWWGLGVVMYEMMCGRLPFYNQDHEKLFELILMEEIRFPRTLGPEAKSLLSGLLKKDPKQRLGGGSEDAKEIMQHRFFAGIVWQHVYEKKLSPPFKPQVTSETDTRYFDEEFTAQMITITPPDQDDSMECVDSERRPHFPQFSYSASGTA

As for `Nc1ncccc1-c1nc2cc(-c3ccc(F)cc3)cnc2n1-c1ccc(CNC(=O)c2ccccc2)cc1` [Example 141, N-{4-[2-(2-aminopyridin-3-yl)-6-(4-fluorophenyl)-3H-imidazo[4,5-b]pyridin-3-yl]benzyl}benzamide], the IC50 (commonly the concentration that inhibits the measured activity by half) in assay [1] worked out at 7.8 µM.
Turning to `Cc1ccc(-c2cnc3c(c2)nc(-c2cccnc2N)n3-c2ccc(CNC(=O)c3ccccc3)cc2)cc1` [Example 144, N-{4-[2-(2-aminopyridin-3-yl)-6-(4-methylphenyl)-3H-imidazo[4,5-b]pyridin-3-yl]benzyl}benzamide], in assay [1], the IC50 amounted to 4.5 µM.
The same measure, in the same setting: the figure for `Nc1ncccc1-c1nc2cc(Br)cnc2n1-c1ccc(CNS(=O)(=O)c2ccc3ccccc3c2)cc1` [Example 157, N-{4-[2-(2-aminopyridin-3-yl)-6-bromo-3H-imidazo[4,5-b]pyridin-3-yl]benzyl}naphthalene-2-sulfonamide] is 8.1 µM; for `Nc1ncccc1-c1nc2cccnc2n1-c1ccc(C(=O)NCc2ccccc2)cc1` [Example 178, 4-[2-(2-aminopyridin-3-yl)-3H-imidazo[4,5-b]pyridin-3-yl]-N-benzylbenzamide] it is 7.1 µM.
For the compound `Nc1ncccc1-c1nc2ccc(-c3cn[nH]c3)nc2n1-c1ccc(CNC(=O)c2cccc(F)c2)cc1` [Example 305, N-(4-(2-(2-aminopyridin-3-yl)-5-(1H-pyrazol-4-yl)-3H-imidazo[4,5-b]pyridin-3-yl)benzyl)-3-fluorobenzamide], the 50% inhibitory concentration (IC50) in assay [2] came to 0.012 µM; in the assay with A2780, 6.8 µM; in the assay with AN3CA, 12 µM; in the assay with BT474 it was 4.2 µM; with LnCap it was 13 µM; in the assay with Zr75-1 it was 8.2 µM.
With `Nc1ncccc1-c1nc2ccc(-c3ccoc3)nc2n1-c1ccc(CNC(=O)c2cccc(F)c2)cc1` [Example 307, N-(4-(2-(2-aminopyridin-3-yl)-5-(furan-3-yl)-3H-imidazo[4,5-b]pyridin-3-yl)benzyl)-3-fluorobenzamide], the IC50 in assay [2] was determined as 0.035 µM; with A2780 it was 2.9 µM; in the assay on AN3CA, 6.3 µM; in the assay with BT474, 3.6 µM; in the assay on LnCap it was 4.9 µM; in the assay with Zr75-1, 9.1 µM.
Consider `Nc1ncccc1-c1nc2ccc(-c3cccc(CO)c3)nc2n1-c1ccc(CNC(=O)c2cccc(F)c2)cc1` [Example 308, N-(4-(2-(2-aminopyridin-3-yl)-5-(3-(hydroxymethyl)phenyl)-3H-imidazo[4,5-b]pyridin-3-yl)benzyl)-3-fluorobenzamide], for which the IC50 in assay [2] was found to be 0.021 µM; in the assay with A2780, 2.3 µM; in the assay with AN3CA, 2.5 µM; with BT474, 1.8 µM; in the assay with LnCap, 2.6 µM; with Zr75-1, 4.3 µM.
As for `CC(=O)Nc1cccc(-c2ccc3nc(-c4cccnc4N)n(-c4ccc(CNS(=O)(=O)c5ccccc5)cc4)c3n2)c1` [Example 324, N-(3-(2-(2-aminopyridin-3-yl)-3-(4-(phenylsulfonamidomethyl)phenyl)-3H-imidazo[4,5-b]pyridin-5-yl)phenyl)acetamide], the IC50 in assay [2] amounted to 0.014 µM; in the assay with A2780, 6.3 µM; in the assay with AN3CA it was 5 µM; in the assay on BT474, 2.5 µM; in the assay on LnCap it was 4.2 µM; in the assay on Zr75-1, 3.6 µM.
On to `Nc1ncccc1-c1nc2ccc(-c3ccccc3)nc2n1-c1ccc(C2(N)CCC2)cc1` [Example 351, 3-(3-(4-(1-aminocyclobutyl)phenyl)-5-phenyl-3H-imidazo[4,5-b]pyridin-2-yl)pyridin-2-amine], for which the half-maximal inhibitory concentration (IC50) in the assay with A2780 is 0.72 µM; with AN3CA, 0.62 µM; in the assay on BT474 it was 1.3 µM; in the assay with LnCap it was 2.1 µM; in the assay on IGROV, 1.7 µM; with Zr75-1 it was 4.2 µM.
